Measurements from patent US10323018B2 (Millennium Pharmaceuticals, Inc., priority 2015, dated 2019).

Columns and labels:
hNAMPT protein = hNAMPT protein (Homo sapiens (Human), UniProt P43490); test: NAMPT enzyme assay (TR-FRET/HTRF with BodiPY ligand); type: binding; settings: for inhibition at 1 µM: NAMPT inhibition at compound concentration 1 μM, read-out: Percent Inhibition; for IC50: NAMPT inhibition, IC50 range class
Outline: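 Ligand displacement by TR-FRET: BodiPY emission (520 nm) over terbium (486 nm) after 320 nm excitation. Compound, BodiPY ligand, hNAMPT and anti-6His-Tb incubated 1 h at room temperature, dark, at pH 7.5. Percent inhibition computed versus DMSO; concentration-response curves fitted for IC50.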

PC3 cells = test: PC3 growth inhibition (Cell-titer glo, 72 hours); type: cell-based; settings: Homo sapiens, PC-3, 72 h, read-out: Percent Viability, PC3 cells, compound concentration 1.667 μM, 72 hours
Outline: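 After 72 h compound treatment in AIM serum-free medium (37 °C, 5% CO2), viability of overnight-plated PC3 cells (8×10^4 cells/ml, RPMI1640-maintained) is read by CellTiter-Glo luminescence versus DMSO. Curves give GI50, LD50 or single-concentration % remaining viability.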

hNAMPT protein, sequence (P43490 whole entry): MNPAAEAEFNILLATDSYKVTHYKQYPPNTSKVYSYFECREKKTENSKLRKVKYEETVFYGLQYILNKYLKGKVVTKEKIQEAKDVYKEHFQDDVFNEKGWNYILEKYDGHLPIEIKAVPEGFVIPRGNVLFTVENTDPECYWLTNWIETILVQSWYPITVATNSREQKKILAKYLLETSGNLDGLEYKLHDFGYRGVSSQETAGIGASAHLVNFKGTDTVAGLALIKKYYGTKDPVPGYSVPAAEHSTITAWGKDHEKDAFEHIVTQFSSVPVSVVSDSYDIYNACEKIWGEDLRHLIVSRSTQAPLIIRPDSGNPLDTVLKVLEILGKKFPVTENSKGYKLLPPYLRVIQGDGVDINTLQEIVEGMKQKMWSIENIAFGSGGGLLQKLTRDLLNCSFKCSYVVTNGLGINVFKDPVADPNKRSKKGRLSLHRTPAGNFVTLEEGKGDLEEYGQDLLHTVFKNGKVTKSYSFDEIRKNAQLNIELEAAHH

| SMILES | inhibition at 1 µM (hNAMPT protein) [%] | IC50 (hNAMPT protein) [nM] | viability at 1.667 µM (PC3 cells) [%] |
| --- | --- | --- | --- |
| CCOc1cc(-c2ccnc(OC)c2)nc2cc(C(=O)NCCCc3cnn[nH]3)ccc12 [Compound I-116, 4-ethoxy-2-(2-methoxypyridin-4-yl)-N-[3-(1H-1,2,3-triazol-5-yl)propyl]quinoline-7-carboxamide] | 98 | < 10 | 2 |
| CCOc1cc(-c2ccnc(C)c2)nc2cc(C(=O)NCCCc3cnn[nH]3)ccc12 [Compound I-117, 4-ethoxy-2-(2-methylpyridin-4-yl)-N-[3-(1H-1,2,3-triazol-5-yl)propyl]quinoline-7-carboxamide] | 100 | < 10 | 2 |
| CCOc1cc(-c2ccn(C)c(=O)c2)nc2cc(C(=O)NCCCc3nnc[nH]3)ccc12 [Compound I-118, 4-ethoxy-2-(1-methyl-2-oxo-1,2-dihydropyridin-4-yl)-N-[3-(4H-1,2,4-triazol-3-yl)propyl]quinoline-7-carboxamide] | 99 | 10 to 50 | 2 |
| CCOc1cc(-c2ccn(C)c(=O)c2)nc2cc(C(=O)NCCCc3cc[nH]n3)ccc12 [Compound I-119, 4-ethoxy-2-(1-methyl-2-oxo-1,2-dihydropyridin-4-yl)-N-[3-(1H-pyrazol-3-yl)propyl]quinoline-7-carboxamide] | 100 | 10 to 50 | 2 |
| COCCOc1cc(-c2ccc(F)cc2)nc2cc(C(=O)NCCCc3cc[nH]n3)ccc12 [Compound I-120, 2-(4-fluorophenyl)-4-(2-methoxyethoxy)-N-[3-(1H-pyrazol-3-yl)propyl]quinoline-7-carboxamide] | 94 | 10 to 50 | 2 |
| CCOc1cc(-c2ccc(F)cc2OC)nc2cc(C(=O)NCCCc3cnn[nH]3)ccc12 [Compound I-121, 4-ethoxy-2-(4-fluoro-2-methoxyphenyl)-N-[3-(1H-1,2,3-triazol-5-yl)propyl]quinoline-7-carboxamide] | > 99 | < 10 | 2 |
| CCOc1cc(-c2ccc(=O)n(C)c2)nc2cc(C(=O)NCCCc3nnc[nH]3)ccc12 [Compound I-122, 4-ethoxy-2-(1-methyl-6-oxo-1,6-dihydropyridin-3-yl)-N-[3-(4H-1,2,4-triazol-3-yl)propyl]quinoline-7-carboxamide] | > 99 | 10 to 50 | 2 |
| CCOc1cc(-c2ccc(=O)n(C)c2)nc2cc(C(=O)NCCCc3cc[nH]n3)ccc12 [Compound I-123, 4-ethoxy-2-(1-methyl-6-oxo-1,6-dihydropyridin-3-yl)-N-[3-(1H-pyrazol-3-yl)propyl]quinoline-7-carboxamide] | > 99 | 10 to 50 | 2 |
| COCCOc1cc(-c2ccc(F)cc2)nc2cc(C(=O)NCCCc3ncn[nH]3)ccc12 [Compound I-124, N-(3-(4H-1,2,4-triazol-3-yl)propyl)-2-(4-fluorophenyl)-4-(2-methoxyethoxy)quinoline-7-carboxamide] | 92 | 50 to 100 | 2 |
| CCOc1cc(-c2ccc(Cl)s2)nc2cc(C(=O)NCCCc3nnc[nH]3)ccc12 [Compound I-125, 2-(5-chloro-2-thienyl)-4-ethoxy-N-[3-(4H-1,2,4-triazol-3-yl)propyl]quinoline-7-carboxamide] | 100 | < 10 | 2 |
| COCCOc1cc(-c2ccc(F)cc2)nc2cc(C(=O)NCCc3c[nH]nc3C)ccc12 [Compound I-126, 2-(4-fluorophenyl)-4-(2-methoxyethoxy)-N-[2-(3-methyl-1H-pyrazol-4-yl)ethyl]quinoline-7-carboxamide] | 91 | 50 to 100 | 2 |
| CCOc1cc(-c2cncc(C)c2)nc2cc(C(=O)NCCCc3nnc[nH]3)ccc12 [Compound I-127, 4-ethoxy-2-(5-methylpyridin-3-yl)-N-[3-(4H-1,2,4-triazol-3-yl)propyl]quinoline-7-carboxamide] | 87 | 50 to 100 | 2 |
| CCOc1cc(-c2ccc(F)cc2OC)nc2cc(C(=O)NCCCc3cc[nH]n3)ccc12 [Compound I-128, 4-ethoxy-2-(4-fluoro-2-methoxyphenyl)-N-[3-(1H-pyrazol-3-yl)propyl]quinoline-7-carboxamide] | 96 | 10 to 50 | 2 |
| CCOc1cc(-c2ccc(F)cc2OC)nc2cc(C(=O)NCCc3c[nH]nc3C)ccc12 [Compound I-129, 4-ethoxy-2-(4-fluoro-2-methoxyphenyl)-N-[2-(3-methyl-1H-pyrazol-4-yl)ethyl]quinoline-7-carboxamide] | 96 | 10 to 50 | 2 |
| CCOc1cc(-c2ccc(F)cc2)nc2cc(C(=O)NCc3ccn4ncnc4c3)ccc12 [Compound I-130, 4-ethoxy-2-(4-fluorophenyl)-N-([1,2,4]triazolo[1,5-a]pyridin-7-ylmethyl)quinoline-7-carboxamide] | 100 | < 10 | 2 |
| CCOc1cc(-c2ccc(F)cc2)nc2cc(C(=O)NCCc3nnc[nH]3)ccc12 [Compound I-131, 4-ethoxy-2-(4-fluorophenyl)-N-[2-(4H-1,2,4-triazol-3-yl)ethyl]quinoline-7-carboxamide] | 99 | 10 to 50 | 3 |
| CCOc1cc(-c2ccc(F)cc2)nc2cc(C(=O)NCCc3c[nH]nc3C)ccc12 [Compound I-132, 4-ethoxy-2-(4-fluorophenyl)-N-[2-(3-methyl-1H-pyrazol-4-yl)ethyl]quinoline-7-carboxamide] | > 99 | < 10 | 3 |
| CCOc1cc(-c2ccc(F)cc2)nc2cc(C(=O)NCCCc3n[nH]nc3C)ccc12 [Compound I-133, 4-ethoxy-2-(4-fluorophenyl)-N-[3-(5-methyl-2H-1,2,3-triazol-4-yl)propyl]quinoline-7-carboxamide] | > 99 | < 10 | 2 |
| CCOc1cc(-c2ccc(F)cc2)nc2cc(C(=O)NCCc3cc(N)[nH]n3)ccc12 [Compound I-134, N-[2-(5-amino-1H-pyrazol-3-yl)ethyl]-4-ethoxy-2-(4-fluorophenyl)quinoline-7-carboxamide] | 93 | 10 to 50 | 3 |
| CCOc1cc(C2CCOCC2)nc2cc(C(=O)NCCCc3nnc[nH]3)ccc12 [Compound I-135, 4-ethoxy-2-(tetrahydro-2H-pyran-4-yl)-N-[3-(4H-1,2,4-triazol-3-yl)propyl]quinoline-7-carboxamide] | 71 | > 100 | 4 |
| CCOc1cc(-c2cc(C)nc(OC)c2)nc2cc(C(=O)NCCCc3nnc[nH]3)ccc12 [Compound I-136, 4-ethoxy-2-(2-methoxy-6-methylpyridin-4-yl)-N-[3-(4H-1,2,4-triazol-3-yl)propyl]quinoline-7-carboxamide] | 98 | < 10 | 2 |
| CCOc1cc(-c2cccc(S(C)(=O)=O)c2)nc2cc(C(=O)NCCCc3nnc[nH]3)ccc12 [Compound I-137, 4-ethoxy-2-[3-(methylsulfonyl)phenyl]-N-[3-(4H-1,2,4-triazol-3-yl)propyl]quinoline-7-carboxamide] | 97 | 10 to 50 | 2 |
| CCOc1cc(-c2ccc(OC)nc2C)nc2cc(C(=O)NCCCc3nnc[nH]3)ccc12 [Compound I-138, 4-ethoxy-2-(6-methoxy-2-methylpyridin-3-yl)-N-[3-(4H-1,2,4-triazol-3-yl)propyl]quinoline-7-carboxamide] | 89 | 50 to 100 | 2 |
| CCOc1cc(-c2ccncc2OC)nc2cc(C(=O)NCCCc3nnc[nH]3)ccc12 [Compound I-139, 4-ethoxy-2-(3-methoxypyridin-4-yl)-N-[3-(4H-1,2,4-triazol-3-yl)propyl]quinoline-7-carboxamide] | 99 | 10 to 50 | 2 |
| CCOc1cc(C2=CCOCC2)nc2cc(C(=O)NCCCc3nnc[nH]3)ccc12 [Compound I-140, 2-(3,6-dihydro-2H-pyran-4-yl)-4-ethoxy-N-[3-(4H-1,2,4-triazol-3-yl)propyl]quinoline-7-carboxamide] | 91 | 50 to 100 | 2 |
| CCOc1cc(-c2ccc(F)cc2)nc2cc(C(=O)NCc3nc(N)n[nH]3)ccc12 [Compound I-141, N-[(3-amino-1H-1,2,4-triazol-5-yl)methyl]-4-ethoxy-2-(4-fluorophenyl)quinoline-7-carboxamide] | 82 | > 100 | 9 |
| CCOc1cc(-c2ccc(F)cc2)nc2cc(C(=O)NCCc3nnc(N)[nH]3)ccc12 [Compound I-142, N-[2-(5-amino-4H-1,2,4-triazol-3-yl)ethyl]-4-ethoxy-2-(4-fluorophenyl)quinoline-7-carboxamide] | 89 | > 100 | 14 |
| CCOc1cc(-c2ccc(OC)nc2OC)nc2cc(C(=O)NCCCc3nnc[nH]3)ccc12 [Compound I-143, 2-(2,6-dimethoxypyridin-3-yl)-4-ethoxy-N-[3-(4H-1,2,4-triazol-3-yl)propyl]quinoline-7-carboxamide] | 97 | 10 to 50 | 2 |
